According to US10913727B2, “Modulators of the integrated stress pathway” (Calico Life Sciences LLC, priority 2016, dated 2021):

System: HEK293T cells carrying the ATF4 luciferase reporter
Test: ATF4-Luc assay, in vitro model of Vanishing Cell White Matter Disease (VWMD)
Type: cell-based
Details: Homo sapiens, HEK-293T, 1 μg/mL tunicamycin, 7 hours, One Glo luminescence
Method in brief: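 Reporter cells were stably generated by retroviral transduction and puromycin selection, then seeded at 30,000 cells/well. Next day, cells received 1 μg/mL tunicamycin with 200 nM test compound for 7 h, and luciferase luminescence was read with a one-step reagent. Values reported as EC50.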

Compared with `O=C(COCc1cccc(Cl)c1)NC12CC(NC(=O)c3cnc(C(F)F)cn3)(C1)C2` [Compound 947, N-(3-{2-[(3-chlorophenyl)methoxy]acetamido}bicyclo[1.1.1]pentan-1-yl)-5-(difluoromethyl)pyrazine-2-carboxamide], `O=C(COc1ccc(Cl)c(Cl)c1)NC12CC(NC(=O)c3ccc(OC(F)F)cn3)(C1)C2` [Compound 153, N-{3-[2-(3,4-dichlorophenoxy)acetamido]bicyclo[1.1.1]pentan-1-yl}-5-(difluoromethoxy)pyridine-2-carboxamide] is lower in EC50: > 2000 nM for the first, 50 to 250 nM for the second. The second is the more potent here.

First: CC(=O)Nc1ccc(C(=O)NC23CC(NC(=O)COc4ccc(Cl)c(F)c4)(C2)C3)cc1 [Compound 816, 4-acetamido-N-{3-[2-(4-chloro-3-fluorophenoxy)acetamido]bicyclo[1.1.1]pentan-1-yl}benzamide]
Second: CCNc1ccc(C(=O)NC23CC(NC(=O)COc4ccc(Cl)c(F)c4)(C2)C3)nc1 [Compound 269, N-{3-[2-(4-chloro-3-fluorophenoxy)acetamido]bicyclo[1.1.1]pentan-1-yl}-5-(ethylamino)pyridine-2-carboxamide]
The EC50 of the first is higher: > 2000 nM for the first, 250 to 1000 nM for the second. The second is the more potent here.

First: O=C(COc1ccc(Cl)c(Cl)c1)NC12CC(NC(=O)c3ccnc(CO)c3)(C1)C2 [Compound 715, N-{3-[2-(3,4-dichlorophenoxy)acetamido]bicyclo[1.1.1]pentan-1-yl}-2-(hydroxymethyl)pyridine-4-carboxamide]
Second: O=C(COc1ccc(Cl)c(Cl)c1)NC12CC(NC(=O)c3ccc(OC(F)(F)F)nc3)(C1)C2 [Compound 147, N-{3-[2-(3,4-dichlorophenoxy)acetamido]bicyclo[1.1.1]pentan-1-yl}-6-(trifluoromethoxy)pyridine-3-carboxamide]
The EC50 of the first is higher: 1000 to 2000 nM for the first, 50 to 250 nM for the second. The second is the more potent here.

`O=C(COc1ccc(Cl)c(F)c1)NC12CC(NC(=O)c3ccnnc3)(C1)C2` [Compound 762, N-{3-[2-(4-chloro-3-fluorophenoxy)acetamido]bicyclo[1.1.1]pentan-1-yl}pyridazine-4-carboxamide] and `O=C(COc1ccc(Cl)c(F)c1)NC12CC(NC(=O)c3sccc3F)(C1)C2` [Compound 796, N-{3-[2-(4-chloro-3-fluorophenoxy)acetamido]bicyclo[1.1.1]pentan-1-yl}-3-fluorothiophene-2-carboxamide] cannot be ordered by EC50: > 2000 nM for the first, > 2000 nM for the second.

First: Cn1cc(-c2ccnc(NC34CC(NC(=O)COc5ccc(Cl)c(F)c5)(C3)C4)n2)cn1 [Compound 381, 2-(4-chloro-3-fluorophenoxy)-N-(3-{[4-(1-methyl-1H-pyrazol-4-yl)pyrimidin-2-yl]amino}bicyclo[1.1.1]pentan-1-yl)acetamide]
Second: O=C(COc1ccc(Cl)c(F)c1)NC12CC(NC(=O)c3nc4ccccc4s3)(C1)C2 [Compound 907, N-{3-[2-(4-chloro-3-fluorophenoxy)acetamido]bicyclo[1.1.1]pentan-1-yl}-1,3-benzothiazole-2-carboxamide]
The EC50 of the first is higher: 1000 to 2000 nM for the first, 50 to 250 nM for the second.

First: Cc1onc(-c2ccccn2)c1C(=O)NC12CC(NC(=O)COc3ccc(Cl)c(F)c3)(C1)C2 [Compound 804, N-{3-[2-(4-chloro-3-fluorophenoxy)acetamido]bicyclo[1.1.1]pentan-1-yl}-5-methyl-3-(pyridin-2-yl)-1,2-oxazole-4-carboxamide]
Second: C[S+]([O-])c1ccccc1C(=O)NC12CC(NC(=O)COc3ccc(Cl)c(F)c3)(C1)C2 (stereo not drawn) [Compound 858, N-{3-[2-(4-chloro-3-fluorophenoxy)acetamido]bicyclo[1.1.1]pentan-1-yl}-2-(methanesulfinyl)benzamide]
The EC50 of the first is higher: > 2000 nM for the first, 1000 to 2000 nM for the second. The second is the more potent here.

First: O=C(COc1ccc(Cl)c(F)c1)NC12CC(NC(=O)c3nnc4n3CCCC4)(C1)C2 [Compound 844, N-{3-[2-(4-chloro-3-fluorophenoxy)acetamido]bicyclo[1.1.1]pentan-1-yl}-5,6,7,8-tetrahydro[1,2,4]triazolo[4,3-a]pyridine-3-carboxamide]
Second: O=C(COc1ccc(Cl)c(F)c1)NC12CC(NC(=O)c3cc(C4CC4)on3)(C1)C2 [Compound 256, N-{3-[2-(4-chloro-3-fluorophenoxy)acetamido]bicyclo[1.1.1]pentan-1-yl}-5-cyclopropyl-1,2-oxazole-3-carboxamide]
The EC50 of the first is higher: > 2000 nM for the first, 250 to 1000 nM for the second. The second is the more potent here.

First: O=C(COc1ccc(Cl)c(F)c1)NC12CCC(NC(=O)c3cc(CO)ccn3)(CC1)C[C@@H]2O [Compound 680, N-{(3S)-4-[2-(4-chloro-3-fluorophenoxy)acetamido]-3-hydroxybicyclo[2.2.2]octan-1-yl}-4-(hydroxymethyl)pyridine-2-carboxamide]
Second: Cc1cc(C(=O)NC23CCC(NC(=O)COc4ccc(Cl)c(F)c4)(CC2)C(O)C3)on1 (stereo not drawn) [Compound 326, N-{4-[2-(4-chloro-3-fluorophenoxy)acetamido]-3-hydroxybicyclo[2.2.2]octan-1-yl}-3-methyl-1,2-oxazole-5-carboxamide]
The EC50 of the first is lower: < 50 nM for the first, 50 to 250 nM for the second.

First: O=C(COc1ccc(Cl)c(Cl)c1)NC12CC(NC(=O)c3cnc(C(F)(F)F)s3)(C1)C2 [Compound 646, N-{3-[2-(3,4-dichlorophenoxy)acetamido]bicyclo[1.1.1]pentan-1-yl}-2-(trifluoromethyl)-1,3-thiazole-5-carboxamide]
Second: CCCc1ncc(C(=O)NC23CC(NC(=O)COc4ccc(Cl)c(F)c4)(C2)C3)s1 [Compound 293, N-{3-[2-(4-chloro-3-fluorophenoxy)acetamido]bicyclo[1.1.1]pentan-1-yl}-2-propyl-1,3-thiazole-5-carboxamide]
The EC50 of the first is higher: 50 to 250 nM for the first, < 50 nM for the second.

`COCc1nc(C(=O)NC23CCC(NC(=O)COc4ccc(Cl)c(F)c4)(CC2)[C@@H](O)C3)cs1` [Compound 619, N-{(3S)-4-[2-(4-chloro-3-fluorophenoxy)acetamido]-3-hydroxybicyclo[2.2.2]octan-1-yl}-2-(methoxymethyl)-1,3-thiazole-4-carboxamide] and `Cc1cc(C(=O)NC23CCC(NC(=O)COc4ccc(Cl)c(F)c4)(CC2)[C@@H](O)C3)sn1` [Compound 679, N-{(3S)-4-[2-(4-chloro-3-fluorophenoxy)acetamido]-3-hydroxybicyclo[2.2.2]octan-1-yl}-3-methyl-1,2-thiazole-5-carboxamide] cannot be ordered by EC50: < 50 nM for the first, < 50 nM for the second.

`CC(C)c1cc(C(=O)NC23CCC(NC(=O)COc4ccc(Cl)c(F)c4)(CC2)C(O)C3)on1` (stereo not drawn) [Compound 577, N-{4-[2-(4-chloro-3-fluorophenoxy)acetamido]-3-hydroxybicyclo[2.2.2]octan-1-yl}-3-(propan-2-yl)-1,2-oxazole-5-carboxamide] and `Cc1cc(C(=O)NC23CCC(NC(=O)COc4ccc(Cl)c(F)c4)(CC2)CC3O)on1` (stereo not drawn) [Compound 330, N-{4-[2-(4-chloro-3-fluorophenoxy)acetamido]-2-hydroxybicyclo[2.2.2]octan-1-yl}-3-methyl-1,2-oxazole-5-carboxamide] fall in the same range of EC50: 50 to 250 nM for the first, 50 to 250 nM for the second.

First: O=C(COc1ccc(Cl)c(F)c1)NC12CC(NC(=O)c3cc(N4CC(F)(F)C4)ccn3)(C1)C2 [Compound 189, N-{3-[2-(4-chloro-3-fluorophenoxy)acetamido]bicyclo[1.1.1]pentan-1-yl}-4-(3,3-difluoroazetidin-1-yl)pyridine-2-carboxamide]
Second: O=C(COc1ccc(Cl)c(F)c1)NC12CC(NC(=O)c3cc(/C=C/CO)ccn3)(C1)C2 [Compound 200, N-{3-[2-(4-chloro-3-fluorophenoxy)acetamido]bicyclo[1.1.1]pentan-1-yl}-4-[(1E)-3-hydroxyprop-1-en-1-yl]pyridine-2-carboxamide]
The EC50 of the first is higher: 250 to 1000 nM for the first, 50 to 250 nM for the second. The second is the more potent here.

First: COc1cnc(C(=O)NC23CC(NC(=O)COc4ccc(Cl)c(F)c4)(C2)C3)cn1 [Compound 124, N-{3-[2-(4-chloro-3-fluorophenoxy)acetamido]bicyclo[1.1.1]pentan-1-yl}-5-methoxypyrazine-2-carboxamide]
Second: N#Cc1ccc(C(=O)NC23CC(NC(=O)COc4ccc(Cl)c(F)c4)(C2)C3)cc1F [Compound 371, N-{3-[2-(4-chloro-3-fluorophenoxy)acetamido]bicyclo[1.1.1]pentan-1-yl}-4-cyano-3-fluorobenzamide]
The EC50 of the first is higher: 1000 to 2000 nM for the first, 50 to 250 nM for the second. The second is the more potent here.

Compared with `O=C(COc1ccc(Cl)c(F)c1)NC12CCC(NC(=O)c3cnc(C(F)F)cn3)(CC1)CC2O` (stereo not drawn) [Compound 229, N-{4-[2-(4-chloro-3-fluorophenoxy)acetamido]-3-hydroxybicyclo[2.2.2]octan-1-yl}-5-(difluoromethyl)pyrazine-2-carboxamide], `O=C(COc1ccc(Cl)c(F)c1)NC12CCC(NC(=O)c3cccnc3)(CC1)C(O)C2` (stereo not drawn) [Compound 217, N-{4-[2-(4-chloro-3-fluorophenoxy)acetamido]-2-hydroxybicyclo[2.2.2]octan-1-yl}pyridine-3-carboxamide] is higher in EC50: 50 to 250 nM for the first, 1000 to 2000 nM for the second.

First: O=C(COc1ccc(Cl)cc1)NC12CC(Nc3nc(-c4ccc(Cl)cc4)no3)(C1)C2 [Compound 284, 2-(4-chlorophenoxy)-N-(3-{[3-(4-chlorophenyl)-1,2,4-oxadiazol-5-yl]amino}bicyclo[1.1.1]pentan-1-yl)acetamide]
Second: O=C(COc1ccc(Cl)c(F)c1)NC12CC(NC(=O)c3coc(-c4ccc(Cl)c(F)c4)n3)(C1)C2 [Compound 108, N-{3-[2-(4-chloro-3-fluorophenoxy)acetamido]bicyclo[1.1.1]pentan-1-yl}-2-(4-chloro-3-fluorophenyl)-1,3-oxazole-4-carboxamide]
The EC50 of the first is higher: 50 to 250 nM for the first, < 50 nM for the second. The second is the more potent here.

First: O=C(COc1ccc(F)c(F)c1)NC12CC(NC(=O)c3ccc(CCC4CC4)cn3)(C1)C2 [Compound 291, 5-(2-cyclopropylethyl)-N-{3-[2-(3,4-difluorophenoxy)acetamido]bicyclo[1.1.1]pentan-1-yl}pyridine-2-carboxamide]
Second: Cc1oc(C2CC2)cc1C(=O)NC12CC(NC(=O)COc3ccc(Cl)c(F)c3)(C1)C2 [Compound 881, N-{3-[2-(4-chloro-3-fluorophenoxy)acetamido]bicyclo[1.1.1]pentan-1-yl}-5-cyclopropyl-2-methylfuran-3-carboxamide]
The EC50 of the first is lower: 50 to 250 nM for the first, > 2000 nM for the second.

`Cc1cc2c(C(=O)NC34CC(NC(=O)COc5ccc(Cl)c(Cl)c5)(C3)C4)nccn2n1` [Compound 562, N-{3-[2-(3,4-dichlorophenoxy)acetamido]bicyclo[1.1.1]pentan-1-yl}-2-methylpyrazolo[1,5-a]pyrazine-4-carboxamide] was tested, and the EC50 was 250 to 1000 nM.
